The target of this experiment is T1, Neuropeptide Y receptor type 5 (Homo sapiens, UniProt Q15761).
T1 sequence (Q15761 whole entry): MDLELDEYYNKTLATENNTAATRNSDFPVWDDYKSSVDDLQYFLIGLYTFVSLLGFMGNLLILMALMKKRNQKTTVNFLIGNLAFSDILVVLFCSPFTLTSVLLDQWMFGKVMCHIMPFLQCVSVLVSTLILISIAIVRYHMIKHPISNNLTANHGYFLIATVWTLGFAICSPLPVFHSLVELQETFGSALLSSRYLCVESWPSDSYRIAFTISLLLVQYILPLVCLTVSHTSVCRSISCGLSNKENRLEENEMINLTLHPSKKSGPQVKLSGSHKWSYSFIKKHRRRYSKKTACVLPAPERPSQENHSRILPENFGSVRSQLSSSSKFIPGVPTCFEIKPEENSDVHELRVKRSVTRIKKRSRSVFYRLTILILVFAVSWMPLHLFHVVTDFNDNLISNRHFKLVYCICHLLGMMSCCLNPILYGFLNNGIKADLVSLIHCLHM
Briefly: Concentration that inhibited 50% of binding of 125 I -PYY ligand to human Neuropeptide Y receptor type 5. It counts as single protein.

In the case of `Fc1ccc2c(c1)-c1nc(-c3cccnc3)[nH]c1CCC2`, the IC50 amounted to 6.4 nM.

For the molecule `Cc1[nH]c(-c2ccccc2)nc1-c1cccnc1` [FR-79620], the half-maximal inhibitory concentration (IC50) is 427 nM.

The molecule `c1ccc(-c2nc3c([nH]2)CCOc2ccccc2-3)cc1` registered an IC50 of 6100 nM.

For the molecule `c1ccc2c(c1)CCCc1[nH]c(-c3c[nH]cn3)nc1-2`, the 50% inhibitory concentration (IC50) was 570 nM.

In turn, `c1ccc(-c2nc3c([nH]2)-c2ccccc2CCC3)nc1` registered a concentration for half-maximal inhibition (IC50) of 110 nM.

As for `COc1ccc2c(c1)-c1nc(-c3ccccn3)[nH]c1CCC2`, the IC50 came out at 110 nM.

`COc1ccc2c(c1)-c1nc(-c3ccccc3)[nH]c1CC2` gave a concentration for half-maximal inhibition (IC50) of 52 nM.

One may read the IC50 as the concentration that inhibits the measured activity by half. A low value points to greater potency in that assay.

Source of the values: ChEMBL document CHEMBL1135260 (Bioorg Med Chem Lett, 2002).
